Consider 24 compounds from patent publication US20230150981A1, “N-HETEROARYLALKYL-2-(HETEROCYCLYL AND HETEROCYCLYLMETHYL) ACETAMIDE DERIVATIVES AS SSTR4 AGONISTS” (Takeda Pharmaceutical Compnay Limited, priority 2020, published 2023).

For assay [1], the target named is T1, SSTR4 (Homo sapiens, UniProt P31391).
T1 construct: host or cells: CHO-K1
As to the kind of experiment: SSTR4 I-125 somatostatin competition binding assay (CHO-K1 membranes). To be noted: competition with I-125 somatostatin, membranes from CHO-K1 overexpressing SSTR4; read-out: SSTR4 Binding pIC50 (converted). The procedure, abridged:
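CHO-K1 membranes overexpressing SSTR4 (1 μg/well) were incubated 60 min at room temperature with compound and I-125 somatostatin (0.2 nM in the compound mix) in 25 mM HEPES pH 7.4, 10 mM MgCl2, 1 mM CaCl2, 0.5% BSA. Bound radioligand was collected on PEI-soaked filters and scintillation-counted, with results reported as pIC50.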

In assay [2] the target is T1, SSTR4. The experiment in a line: Inhibition of forskolin stimulated cAMP in CHO-K1 cells overexpressing SSTR4. Format: cell-based. To be noted: read-out: SSTR4 Activity pEC50 (converted). The procedure, abridged:
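CHO-K1 cells overexpressing SSTR4 treated 30 min at room temperature with compound in Krebs Ringer buffer containing 0.5% BSA, 300 μM IBMX and 350 nM forskolin. Intracellular cAMP measured by HTRF LANCE Ultra (665/615 nm); pEC50 values reported.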

In a further assay the target is T2, SSTR1 (Homo sapiens, UniProt P30872).
T2 construct: purchased Perkin Elmer ES-520-M400UA; host or cells: CHO-K1 membranes
The experiment in a line: SSTR1 I-125 somatostatin competition binding assay for selectivity versus SSTR1 (CHO-K1 membranes). The following applies: competition with I-125 somatostatin, membranes from CHO-K1 overexpressing SSTR1; read-out: SSTR1 Binding pIC50 (converted). A digest of the protocol: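 Competition binding used 10 μg CHO-K1 SSTR1 membranes and I-125 somatostatin, 0.4 nM in the compound mix before membranes were added. Buffer was 25 mM HEPES pH 7.4, 10 mM MgCl2, 1 mM CaCl2, 0.5% BSA. After 60 min at room temperature, bound tracer was filtered onto PEI-soaked filters and counted by scintillation; values are pIC50.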

A value given as a limit tells only on which side of the number the result lay.

T1 sequence (P31391 whole entry): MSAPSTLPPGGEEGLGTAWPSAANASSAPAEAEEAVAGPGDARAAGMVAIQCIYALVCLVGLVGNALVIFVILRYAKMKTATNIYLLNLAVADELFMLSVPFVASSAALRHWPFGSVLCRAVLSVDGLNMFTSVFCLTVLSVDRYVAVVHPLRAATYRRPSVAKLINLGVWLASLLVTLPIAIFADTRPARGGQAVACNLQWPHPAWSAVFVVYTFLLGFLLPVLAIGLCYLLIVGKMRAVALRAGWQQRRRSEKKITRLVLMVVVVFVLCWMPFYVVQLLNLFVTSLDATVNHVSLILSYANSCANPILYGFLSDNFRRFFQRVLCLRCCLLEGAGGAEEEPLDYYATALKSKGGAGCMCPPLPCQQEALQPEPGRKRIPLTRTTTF
T2 sequence (P30872 whole entry): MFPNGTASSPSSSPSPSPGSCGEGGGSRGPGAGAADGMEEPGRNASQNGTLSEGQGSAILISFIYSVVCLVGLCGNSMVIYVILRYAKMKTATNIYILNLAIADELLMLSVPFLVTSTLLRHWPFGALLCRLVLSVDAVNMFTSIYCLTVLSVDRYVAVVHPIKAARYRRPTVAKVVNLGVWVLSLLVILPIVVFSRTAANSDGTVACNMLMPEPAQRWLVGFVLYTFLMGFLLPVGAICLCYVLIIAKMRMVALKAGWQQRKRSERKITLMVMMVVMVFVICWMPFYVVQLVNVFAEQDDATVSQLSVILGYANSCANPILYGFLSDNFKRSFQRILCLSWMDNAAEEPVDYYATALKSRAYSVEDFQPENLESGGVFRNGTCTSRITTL

As for `Cc1cccc(C(C)(C)NC(=O)CCN2CCC2)c1` [Example 162, 3-(azetidin-1-yl)-N-(2-(m-tolyl)propan-2-yl)propanamide], the IC50 is 79.4 nM on SSTR4 [1] and 25.1 µM at SSTR1. Moreover, the EC50 on SSTR4 [2] is 7.94 nM.

Take `CCN1CCCC1CC(=O)NC(C)(C)COc1ncccc1C(F)(F)F` (stereo not drawn) [Example 50, 2-(1-ethylpyrrolidin-2-yl)-N-(2-methyl-1-((3-(trifluoromethyl)pyridin-2-yl)oxy)propan-2-yl)acetamide]: the IC50 was 126 nM at SSTR4 [1] and 12.6 µM on SSTR1. For the same compound, at SSTR4 [2], the EC50 was 15.8 nM.

Consider `Cc1ccc(C(CF)NC(=O)CCN2CCC2)cc1` (stereo not drawn) [Example 173, 3-(azetidin-1-yl)-N-(2-fluoro-1-(p-tolyl)ethyl)propanamide], for which the IC50 at SSTR4 [1] was 200 nM; on SSTR1 it was > 50.1 µM. Further, on SSTR4 [2], the EC50 is 20 nM.

`CC[C@H](CN1CCC1)C(=O)NC(C)(C)c1ccc(F)cc1` (single isomer, unassigned) [Example 182]: the figures for the IC50 on SSTR4 [1] and at SSTR1 were 12.6 nM and 1 µM, respectively. The EC50 on SSTR4 [2] was 1.58 nM.

As to `CC(C)[C@@H](CN1CCC1)C(=O)N[C@@H](c1ccccc1)C(F)F` [Example 178, (S)-2-(azetidin-1-ylmethyl)-N-((S)-2,2-difluoro-1-phenylethyl)-3-methylbutanamide], the values for the IC50 on SSTR4 [1] and on SSTR1 were 39.8 nM and 6.31 µM, respectively. The EC50 at SSTR4 [2] was 39.8 nM.

As for `Cc1ccccc1C(NC(=O)CCN1CCC1)C(F)(F)F` (single isomer, unassigned) [Example 210], the IC50 at SSTR4 [1] is 31.6 nM; at SSTR1, 3.98 µM. The EC50 at SSTR4 [2] was 10 nM.

Turning to `Cc1ccc(C(NC(=O)CCN2CCC2)C(F)(F)F)cc1` (single isomer, unassigned) [Example 207], the IC50 at SSTR4 [1] was 39.8 nM; on SSTR1 it was 5.01 µM. For the same compound, the EC50 on SSTR4 [2] is 1.58 nM.

With `C[C@@H](CN1CCC1)C(=O)NC(C)(C)c1ccc(Cl)cc1` (single isomer, unassigned) [Example 155], the IC50 on SSTR4 [1] was 39.8 nM; on SSTR1, 3.16 µM. In addition, on SSTR4 [2], the EC50 is 2.51 nM.

Take `Cc1cccc(C(C)(C)NC(=O)[C@@H](C)CN2CCC2)c1Cl` (single isomer, unassigned) [Example 145]: the figures for the IC50 at SSTR4 [1] and at SSTR1 were 20 nM and 1.26 µM, respectively. Moreover, the EC50 on SSTR4 [2] is 0.794 nM.

As to `COc1c(F)cccc1C(C)(C)NC(=O)C(C)CN1CCC1` (stereo not drawn) [Example 170, 3-(azetidin-1-yl)-N-(2-(3-fluoro-2-methoxyphenyl)propan-2-yl)-2-methylpropanamide], the results for the IC50 at SSTR4 [1] and on SSTR1 were 25.1 nM and 5.01 µM, respectively. Besides, the EC50 at SSTR4 [2] is 0.794 nM.

For `CC(C)(NC(=O)CCN1CCC1)c1ccc(Cl)cc1` [Example 165, 3-(azetidin-1-yl)-N-(2-(4-chlorophenyl)propan-2-yl)propanamide], the IC50 is 79.4 nM at SSTR4 [1] and 25.1 µM on SSTR1. In addition, the EC50 on SSTR4 [2] is 10 nM.

On to `CC(C)(NC(=O)CCN1CCC1)c1cccc(F)c1` [Example 163, 3-(azetidin-1-yl)-N-(2-(3-fluorophenyl)propan-2-yl)propanamide], for which the IC50 on SSTR4 [1] was 398 nM; on SSTR1, > 50.1 µM. In addition, the EC50 at SSTR4 [2] is 25.1 nM.

Take `Cc1c(F)cccc1C(C)(C)NC(=O)[C@H](C)CN1CCC1` (single isomer, unassigned) [Example 142]: the IC50 is 15.8 nM at SSTR4 [1] and 2 µM on SSTR1. Also, the EC50 at SSTR4 [2] is 1.58 nM.

On to `O=C(CCN1CCC1)N[C@H](c1cc(F)ccc1F)C(F)F` (single isomer, unassigned) [Example 169], for which the IC50 at SSTR4 [1] is 316 nM; at SSTR1 it was 39.8 µM. Also, at SSTR4 [2], the EC50 is 2.51 nM.

Regarding `CC(C)(NC(=O)CC1NCCC1(F)F)c1nccc2ccccc12` (stereo not drawn) [Example 100, 2-(3,3-difluoropyrrolidin-2-yl)-N-(2-(isoquinolin-1-yl)propan-2-yl)acetamide], the IC50 is 1000 nM on SSTR4 [1] and > 50.1 µM at SSTR1. Further, at SSTR4 [2], the EC50 was 200 nM.

Regarding `CN1CCC[C@@H]1CC(=O)NC(C)(C)c1ccc(Cl)cc1` [Example 40, (R)-N-(2-(4-chlorophenyl)propan-2-yl)-2-(1-methylpyrrolidin-2-yl)acetamide], the IC50 on SSTR4 [1] is 200 nM; on SSTR1, 20 µM. The EC50 at SSTR4 [2] is 50.1 nM.

As to `CC(C)[C@@H](CN1CCC1)C(=O)N[C@H](c1ccc(F)cc1)C(F)F` [Example 196, (S)-2-(azetidin-1-ylmethyl)-N-((R)-2,2-difluoro-1-(4-fluorophenyl)ethyl)-3-methylbutanamide], the figures for the IC50 at SSTR4 [1] and at SSTR1 were 3.16 nM and 0.501 µM, respectively. For the same compound, on SSTR4 [2], the EC50 was 0.2 nM.

For `CC(C)[C@@H](CN1CCC1)C(=O)N[C@H](c1cccc(F)c1)C(F)F` [Example 194, (S)-2-(azetidin-1-ylmethyl)-N-((R)-2,2-difluoro-1-(3-fluorophenyl)ethyl)-3-methylbutanamide], the values for the IC50 at SSTR4 [1] and on SSTR1 were 2.51 nM and 0.631 µM, respectively. Further, the EC50 at SSTR4 [2] is 0.794 nM.

For the compound `Cc1cccc2c(C(C)(C)NC(=O)C[C@H]3CCCN3C)noc12` [Example 19, (R)-N-(2-(7-methylbenzo[d]isoxazol-3-yl)propan-2-yl)-2-(1-methylpyrrolidin-2-yl)acetamide], the IC50 is 126 nM at SSTR4 [1] and 10 µM on SSTR1. Besides, the EC50 at SSTR4 [2] was 12.6 nM.

As for `CN1CCCC[C@@H]1CC(=O)NC(C)(C)c1nccc2occc12` (single isomer, unassigned) [Example 14], the IC50 at SSTR4 [1] is 79.4 nM; on SSTR1, 25.1 µM. In addition, on SSTR4 [2], the EC50 was 6.31 nM.

For `C[C@H](CN1CCC1)C(=O)N[C@@H](CF)c1ccccc1` (single isomer, unassigned) [Example 205], the figures for the IC50 at SSTR4 [1] and at SSTR1 were 25.1 nM and 2.51 µM, respectively. The EC50 at SSTR4 [2] is 1.26 nM.

On to `Cc1cccc2c(C(C)(C)NC(=O)CC3NCCC3(F)F)nccc12` (stereo not drawn) [Example 101, 2-(3,3-difluoropyrrolidin-2-yl)-N-(2-(5-methylisoquinolin-1-yl)propan-2-yl)acetamide], for which the IC50 is 631 nM on SSTR4 [1] and > 50.1 µM on SSTR1. At SSTR4 [2], the EC50 was 100 nM.

Turning to `Cc1cccnc1OCC1(NC(=O)C[C@@H]2CCCN2C)CCC1` [Example 55, (S)-N-(1-(((3-methylpyridin-2-yl)oxy)methyl)cyclobutyl)-2-(1-methylpyrrolidin-2-yl)acetamide], the results for the IC50 on SSTR4 [1] and at SSTR1 were 1000 nM and 39.8 µM, respectively. Further, the EC50 at SSTR4 [2] was 100 nM.

As for `C[C@@H](CN1CCC1)C(=O)NC(C)(C)c1cccc(F)c1` (single isomer, unassigned) [Example 153], the values for the IC50 at SSTR4 [1] and at SSTR1 were 79.4 nM and 6.31 µM, respectively. Besides, on SSTR4 [2], the EC50 is 3.98 nM.
